Our source for the IC50 values is patent publication US20250179077A1, “QUINAZOLINE COMPOUNDS AND USES THEREOF AS INHIBITORS OF MUTANT KRAS PROTEINS” (AMGEN INC., priority 2022, published 2025).

Broadly, the IC50 is the concentration needed to halve the response being measured.

Molecules are shown by their SMILES. Where two headings read alike, the source gives them in different places.

Experiment [1] concerns the target GDP-bound KRAS protein (aa 1-169), containing both G12D and C118A amino acid substitutions (Homo sapiens, UniProt P01116, C118A/G12D). In words: KRAS G12D Coupled Nucleotide Exchange Assay. It is filed as biochemical. The procedure: KRAS G12D Coupled Nucleotide Exchange Assay
Following compound pre-incubation, purified SOS protein (aa 564-1049) and GTP (Roche 10106399001) were added to the assay wells and incubated for an additional 30 min. […] The assay plates were then read on a PerkinElmer EnVision Multilabel Reader, using AlphaScreen® technology, and data were analyzed using a 4-parameter logistic model to calculate IC50 values.

For experiment [2], the target named is His-tagged KRAS G12D protein (Homo sapiens, UniProt P01116, G12D). In words: KRAS G12D TR-FRET Assay. Format: binding. The procedure: KRAS G12D TR-FRET Assay Compounds of interest were prepared in a dose-response titration in DMSO, and 80 nL were added via Labcyte Echo to each well of a 384-well plate (Perkin Elmer 6008280). The His-tagged KRAS G12D protein (Amgen) was diluted to 20 nM in Assay Buffer (20 mM HEPES, pH 7.4, 10 mM MgCl2, 50 mM NaCl, 0.1% BSA, 0.01% Tween-20, 10 μM GDP) and 2 uL was added to the appropriate wells of the 384-well plate. The plate was incubated for 30 minutes at room temperature. Biotinylated KRPep-2d substrate (Amgen) was diluted to 20 nM in Assay Buffer and 2 μL was added to all wells and incubated for 1 hour at room temperature. Detection Reagent (0.4 nM LANCE Eu-W1024 Anti-6×-His (Perkin Elmer AD0401), 5 nM streptavidin-d2 (Cisbio 610SADLA)) was prepared in Assay Buffer, then 4 μL was added to the plate and incubated for 1 hour at room temperature. Plates were read using PerkinElmer EnVision (ex: 320 nm, em1: 665 nm, em2: 615 nm) and em1/em2 data was used to generate curve fits using a 4-parameter logistic model to calculate IC50 values.
Chain of His-tagged KRAS G12D protein (P01116 1-188 isoform P01116-2 G12D): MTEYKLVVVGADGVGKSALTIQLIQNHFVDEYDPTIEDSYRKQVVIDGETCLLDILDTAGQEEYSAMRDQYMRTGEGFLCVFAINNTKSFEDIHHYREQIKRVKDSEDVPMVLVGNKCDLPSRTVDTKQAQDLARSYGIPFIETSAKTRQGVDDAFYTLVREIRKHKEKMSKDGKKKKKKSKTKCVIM
(In TR-FRET formats the signal depends on donor and acceptor labels being close together.)

For experiment [3], the system named is Phosphorylation of ERK1/2 in AsPC-1 cells. In words: Phospho-ERK1/2 MSD Assay. It is filed as cell-based. Here is the method:
AsPC-1 (ATCC® CRL-1682™) cells were cultured in RPMI 1640 Medium (ThermoFisher Scientific 11875093) containing 10% fetal bovine serum (ThermoFisher Scientific 16000044) and Ix penicillin-streptomycin-glutamine (ThermoFisher Scientific 10378016). Sixteen hours prior to compound treatment, AsPC-1 cells were seeded in 96-well cell culture plates at a density of 25,000 cells/well and incubated at 37° C., 5% CO2. A compound dose-response titration was diluted in growth media, added to appropriate wells of a cell culture plate, and then incubated at 37° C., 5% CO2 for 2 h. Following compound treatment, cells were washed with ice-cold Dulbecco's phosphate-buffered saline, no Ca^2+ or Mg^2+ (ThermoFisher Scientific 14190144), and then lysed in RIPA buffer (50 mM Tris-HCl pH 7.5, 1% Igepal, 0.5% sodium deoxycholate, 150 mM NaCl, and 0.5% sodium dodecyl sulfate) containing protease inhibitors (Roche 4693132001) and phosphatase inhibitors (Roche 4906837001). Phosphorylation of ERK1/2 in compound-treated lysates was assayed using Phospho-ERK1/2 Whole Cell Lysate kits (Meso Scale Discovery K151DWD) according to the manufacturer's protocol. Assay plates were read on a Meso Scale Discovery Sector Imager 6000, and data were analyzed using a 4-parameter logistic model to calculate IC50 values.

Where [4] appears, read: Homo sapiens, ASPC1, 2 h, read-out: 2 h p-ERK (AsPC-1 cells), IC50, AsPC-1 cells, 2 h compound treatment.
[5] abbreviates: read-out: 2 h p-ERK (AsPC-1 cells), IC50, AsPC-1 cells, 2 h compound treatment.

Chain of GDP-bound KRAS protein (aa 1-169), containing both G12D and C118A amino acid substitutions (P01116 1-169 isoform P01116-2 G12D/C118A): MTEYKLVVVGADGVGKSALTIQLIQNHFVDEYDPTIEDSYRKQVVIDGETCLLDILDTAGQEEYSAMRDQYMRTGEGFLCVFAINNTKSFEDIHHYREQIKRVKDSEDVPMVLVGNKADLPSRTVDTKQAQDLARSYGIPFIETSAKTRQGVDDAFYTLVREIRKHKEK

On to `CCc1c(F)ccc2cc(N)cc(-c3c(F)cc4c(N5CCC[C@@](C)(O)C5)nc(OC[C@@]56CCCN5C[C@H](F)C6)nc4c3F)c12` (single isomer, unassigned) [Example 62], for which the IC50 in experiment [1] came out at 2 nM; in experiment [2], 17 nM; in experiment [3] (setting [4]) it was 281 nM.

As for `Cc1cc2[nH]ncc2c(-c2ccc3c(N4CCC[C@@](C)(O)C4)nc(OC[C@@]45CCCN4C[C@H](F)C5)nc3c2F)c1[C@H]1C[C@H]1C` (single isomer, unassigned) [Example 107], the IC50 came to 3 nM in experiment [1], 4 nM in experiment [2] and 166 nM in experiment [3] (setting [4]).

As for `CC1(O)COCCN(c2nc(OC[C@@]34CCCN3C[C@H](F)C4)nc3c(F)c(-c4cc(O)cc5ccc(F)c(F)c45)ccc23)C1` (single isomer, unassigned) [Example 31], the results for the concentration for half-maximal inhibition (IC50) in experiment [1], in experiment [2] and in experiment [3] (setting [4]) were 2 nM, 3 nM and 27 nM, respectively.

Take `C/C=C\c1c(C)cc2[nH]ncc2c1-c1c(F)cc2c(N3CCC[C@](O)(CF)C3)nc(OC[C@@]34CCCN3C[C@H](F)C4)nc2c1F` (single isomer, unassigned) [Example 102]: the results for the IC50 in experiment [1], in experiment [2] and in experiment [3] (setting [4]) were 3 nM, 4 nM and 36 nM, respectively.

For the compound `CCc1c(F)ccc2cc(O)cc(-c3c(F)cc4c(N5CCCC6(CNC(=O)O6)C5)nc(OC[C@@]56CCCN5C[C@H](F)C6)nc4c3F)c12` (single isomer, unassigned) [Example 59], the IC50 in experiment [1] is 8 nM; in experiment [2] it was 21 nM; in experiment [3] (setting [5]) it was 39 nM.

`CCc1c(F)ccc2cc(O)cc(-c3ccc4c(N5CCCC6(CCO6)C5)nc(OC[C@@]56CCCN5C[C@H](F)C6)nc4c3F)c12` (stereo partly drawn) [Example 40, 5-Ethyl-6-fluoro-4-(8-fluoro-2-(((2R,7aS)-2-fluorotetrahydro-1H-pyrrolizin-7a(5H)-yl)methoxy)-4-(1-oxa-6-azaspiro[3.5]nonan-6-yl)quinazolin-7-yl)naphthalen-2-ol]: the half-maximal inhibitory concentration (IC50) in experiment [1] was 11 nM; in experiment [2], 6 nM; in experiment [3] (setting [4]), 53 nM.

With `CCc1c(F)ccc2cc(O)cc(-c3c(F)cc4c(N5CCC[C@]6(COC(=O)O6)C5)nc(OC[C@@]56CCCN5C[C@H](F)C6)nc4c3F)c12` (single isomer, unassigned) [Example 93], the results for the IC50 in experiment [1], in experiment [2] and in experiment [3] (setting [4]) were 5 nM, 7 nM and 28 nM, respectively.

`Oc1cc(-c2c(F)cc3c(N4CCC[C@]5(CCO5)C4)nc(OC[C@@]45CCCN4C[C@H](F)C5)nc3c2F)c2c(Cl)c(F)ccc2c1` [Example 78, 5-Chloro-4-(6,8-difluoro-2-(((2R,7aS)-2-fluorotetrahydro-1H-pyrrolizin-7a(5H)-yl)methoxy)-4-((S)-1-oxa-6-azaspiro[3.5]nonan-6-yl)quinazolin-7-yl)-6-fluoronaphthalen-2-ol]: the figures for the IC50 in experiment [1], in experiment [2] and in experiment [3] (setting [4]) were 3 nM, 5 nM and 16 nM, respectively.

For the compound `C/C=C\c1c(Cl)cc2[nH]ncc2c1-c1c(F)cc2c(N3CCC[C@@](C)(O)C3)nc(OC[C@@]34CCCN3C[C@H](F)C4)nc2c1F` [Example 119, (3R)-1-(7-(6-Chloro-5-((Z)-prop-1-en-1-yl)-1H-indazol-4-yl)-6,8-difluoro-2-(((2R,7aS)-2-fluorotetrahydro-1H-pyrrolizin-7a(5H)-yl)methoxy)quinazolin-4-yl)-3-methylpiperidin-3-ol], the IC50 was found to be 11 nM in experiment [1]; 16 nM in experiment [2]; 111 nM in experiment [3] (Homo sapiens, ASPC1, read-out: 2 h p-ERK (AsPC-1 cells), IC50, AsPC-1 cells, 2 h compound treatment).

With `CCc1c(F)ccc2cc(O)cc(-c3c(F)cc4c(N5CCCC(O)(C(F)F)C5)nc(OC[C@@]56CCCN5C[C@H](F)C6)nc4c3F)c12` (single isomer, unassigned) [Example 20], the IC50 in experiment [1] is 2 nM; in experiment [2], 2 nM; in experiment [3] (setting [4]), 58 nM.

As for `C/C=C\c1c(Cl)cc2[nH]ncc2c1-c1ccc2c(N3CCC[C@]4(CCO4)C3)nc(OC[C@@]34CCCN3C[C@H](F)C4)nc2c1F` [Example 116, (4S)-6-(7-(6-Chloro-5-((Z)-prop-1-en-1-yl)-1H-indazol-4-yl)-8-fluoro-2-(((2R,7aS)-2-fluorotetrahydro-1H-pyrrolizin-7a(5H)-yl)methoxy)quinazolin-4-yl)-1-oxa-6-azaspiro[3.5]nonane], the IC50 was 2 nM in experiment [1], 3 nM in experiment [2] and 59 nM in experiment [3] (setting [4]).

On to `Oc1cc(-c2ccc3c(N4CCCOCC4)nc(OC[C@]45CCCN4C[C@H](F)C5)nc3c2F)c2ccccc2c1` [Example 41, 4-(8-Fluoro-2-(((2R,7aR)-2-fluorotetrahydro-1H-pyrrolizin-7a(5H)-yl)methoxy)-4-(1,4-oxazepan-4-yl)quinazolin-7-yl)naphthalen-2-ol], for which the IC50 in experiment [1] worked out at 23 nM; in experiment [2] it was 23 nM; in experiment [3] (setting [4]), 1470 nM.

As to `Oc1cc(Cl)c(C2CC2)c(-c2ccc3c(N4CCCOCC4)nc(OC[C@@]45CCCN4C[C@H](F)C5)nc3c2F)c1` [Example 7, 3-Chloro-4-cyclopropyl-5-(8-fluoro-2-(((2R,7a.S)-2-fluorotetrahydro-1H-pyrrolizin-7a(5H)-yl)methoxy)-4-(1,4-oxazepan-4-yl)quinazolin-7-yl)phenol], the results for the IC50 in experiment [1], in experiment [2] and in experiment [3] (setting [4]) were 11 nM, 12 nM and 812 nM, respectively.

Regarding `CCc1c(F)ccc2cc(O)cc(-c3c(F)cc4c(N5CCC[C@]6(CCO6)C5)nc(OC[C@@]56CCCN5C[C@H](F)C6)nc4c3F)c12` (single isomer, unassigned) [Example 90], the figures for the 50% inhibitory concentration (IC50) in experiment [1], in experiment [2] and in experiment [3] (setting [4]) were 3 nM, 5 nM and 7 nM, respectively.

Turning to `CCc1c(F)ccc2cc(O)cc(-c3c(F)cc4c(N5CCCC6(CCO6)C5)nc(OC[C@@]56CCCN5C[C@H](F)C6)nc4c3F)c12` (single isomer, unassigned) [Example 39], the IC50 in experiment [1] amounted to 4 nM; in experiment [2], 3 nM; in experiment [3] (setting [5]), 10 nM.

Take `C/C=C\c1c(Cl)cc2[nH]ncc2c1-c1c(F)cc2c(N3CCC[C@]4(CCO4)C3)nc(OC[C@@]34CCCN3C[C@H](F)C4)nc2c1F` (single isomer, unassigned) [Example 113]: the IC50 in experiment [1] amounted to 3 nM; in experiment [2] it was 3 nM; in experiment [3] (setting [4]) it was 41 nM.

`CCc1c(F)ccc2cc(O)cc(-c3c(F)cc4c(N5CCC(O)C5)nc(OC[C@@]56CCCN5C[C@H](F)C6)nc4c3F)c12` (stereo partly drawn) [Example 19, 1-(7-(8-Ethyl-7-fluoro-3-hydroxynaphthalen-1-yl)-6,8-difluoro-2-(((2R,7a.S)-2-fluorotetrahydro-1H-pyrrolizin-7a(5H)-yl)methoxy)quinazolin-4-yl)pyrrolidin-3-ol]: the IC50 in experiment [1] amounted to 37 nM; in experiment [2], 111 nM; in experiment [3] (setting [4]) it was 7740 nM.

Regarding `CCc1c(F)ccc2cc(O)cc(-c3c(F)cc4c(N5[C@H]6CCC(O)[C@@H]5CC6)nc(OC[C@@]56CCCN5C[C@H](F)C6)nc4c3F)c12` (mixture of isomers) [Example 55, rac-(1S,5R)-8-(7-(8-Ethyl-7-fluoro-3-hydroxynaphthalen-1-yl)-6,8-difluoro-2-(((2R,7aS)-2-fluorotetrahydro-1H-pyrrolizin-7a(5H)-yl)methoxy)quinazolin-4-yl)-8-azabicyclo[3.2.1]octan-2-ol], the half-inhibitory concentration (IC50) in experiment [1] was determined as 11 nM; in experiment [2] it was 21 nM; in experiment [3] (setting [4]), 822 nM.
